We go through 46 substances from the OligoGym collection.

Oligonucleotides are written 5' to 3', each unit as a sugar letter and its base; * is a phosphorothioate linkage, no mark a phosphodiester; rarer units and linkages stand in square brackets, end groups in braces. Plain capitals give the bases only. Oligonucleotides are given in HELM: sugar(base)linkage, 5' to 3'; d 2'-deoxyribose, r ribose, m 2'-O-methylribose, p phosphate. ss, as = sense and antisense strand; d = 2'-deoxy (DNA); r = 2'-OH (RNA)
Note: test concentration or dose not given here.

One data set concerns the target UBE2T. As to the kind of experiment: reporter assay of Huesken 2005. The settings on record: siRNA.
With “sense rUrGrUrUrCrUrCrArArArUrUrGrCrCrArCrCrAdTdT / antisense rUrGrGrUrGrGrCrArArUrUrUrGrArGrArArCrAdTdC”, the normalised inhibition (eCFP-eYFP dual reporter) stood at 53.3%. Turning to “sense rUrArArArGrArCrCrArArArUrGrGrArUrGrArCdTdT / antisense rGrUrCrArUrCrCrArUrUrUrGrGrUrCrUrUrUrAdTdC”, the normalised inhibition (eCFP-eYFP dual reporter) came out at 63.2%. “sense rArArGrUrUrArUrCrArUrUrCrCrUrGrArGrArGdTdT / antisense rCrUrCrUrCrArGrGrArArUrGrArUrArArCrUrUdCdT”: the normalised inhibition (eCFP-eYFP dual reporter) turned out to be 79.4%. As to “sense rArUrCrUrArCrCrArGrArGrGrCrUrGrGrUrGrAdTdT / antisense rUrCrArCrCrArGrCrCrUrCrUrGrGrUrArGrArUdTdA”, the normalised inhibition (eCFP-eYFP dual reporter) was found to be 97%. “sense rArArUrGrCrCrArGrArCrArGrUrGrGrArCrArGdTdT / antisense rCrUrGrUrCrCrArCrUrGrUrCrUrGrGrCrArUrUdCdT”: the normalised inhibition (eCFP-eYFP dual reporter) came to 77.5%.

Regarding “sense rUrArUrUrArGrGrUrGrGrArGrCrCrArArCrArCdTdT / antisense rGrUrGrUrUrGrGrCrUrCrCrArCrCrUrArArUrAdTdT”, the normalised inhibition (eCFP-eYFP dual reporter) is 57.4%.

Consider “sense rArGrGrArArGrArGrArUrGrCrUrUrGrArUrArAdTdT / antisense rUrUrArUrCrArArGrCrArUrCrUrCrUrUrCrCrUdCdA”, for which the normalised inhibition (eCFP-eYFP dual reporter) came out at 113%. On the same count and under the same terms, with “sense rUrGrArUrGrArCrCrCrGrCrUrCrArUrGrGrCrUdTdT / antisense rArGrCrCrArUrGrArGrCrGrGrGrUrCrArUrCrAdGdG” the figure was 75.6%; with “sense rGrArArGrCrArUrGrCrArArGrArCrArGrArArAdTdT / antisense rUrUrUrCrUrGrUrCrUrUrGrCrArUrGrCrUrUrCdTdC”, 97.1%. For “sense rUrGrArArCrCrUrCrCrUrCrArGrArUrCrCrGrAdTdT / antisense rUrCrGrGrArUrCrUrGrArGrGrArGrGrUrUrCrAdAdA”, the normalised inhibition (eCFP-eYFP dual reporter) was 105%.

As to “sense rUrCrUrGrCrUrGrGrArArGrGrArUrUrUrGrUrCdTdT / antisense rGrArCrArArArUrCrCrUrUrCrCrArGrCrArGrAdAdT”, the normalised inhibition (eCFP-eYFP dual reporter) was 87.8%.

Turning to “sense rGrCrUrCrArArArUrArUrUrArGrGrUrGrGrArGdTdT / antisense rCrUrCrCrArCrCrUrArArUrArUrUrUrGrArGrCdTdC”, the normalised inhibition (eCFP-eYFP dual reporter) is 87.1%. Turning to “sense rArCrCrCrUrGrArUrGrArCrCrCrGrCrUrCrArUdTdT / antisense rArUrGrArGrCrGrGrGrUrCrArUrCrArGrGrGrUdTdG”, the normalised inhibition (eCFP-eYFP dual reporter) is 101%. The same measure, in the same setting: with “sense rUrGrArUrUrCrUrGrCrUrGrGrArArGrGrArUrUdTdT / antisense rArArUrCrCrUrUrCrCrArGrCrArGrArArUrCrAdAdT” the figure was 95.4%; with “sense rGrArArGrGrCrCrArGrUrCrArGrCrUrArGrUrAdTdT / antisense rUrArCrUrArGrCrUrGrArCrUrGrGrCrCrUrUrCdCdT”, 91.9%. In the case of “sense rCrArGrGrCrArUrCrArCrArUrGrUrUrGrGrCrAdTdT / antisense rUrGrCrCrArArCrArUrGrUrGrArUrGrCrCrUrGdGdG”, the normalised inhibition (eCFP-eYFP dual reporter) was 90.8%. Still for that read-out and setting: with “sense rUrGrUrUrGrGrCrArArGrArUrArArArGrArCrCdTdT / antisense rGrGrUrCrUrUrUrArUrCrUrUrGrCrCrArArCrAdTdG” the figure was 75.8%; with “sense rCrCrArArUrUrUrArUrCrArUrCrCrArArArCrAdTdT / antisense rUrGrUrUrUrGrGrArUrGrArUrArArArUrUrGrGdAdG”, 101%; with “sense rUrUrArArGrCrUrArGrArArGrUrUrArUrCrArUdTdT / antisense rArUrGrArUrArArCrUrUrCrUrArGrCrUrUrArAdAdA”, 89.9%. On the same count and under the same terms, to “sense rArGrGrUrGrCrUrUrGrGrArGrArCrCrArUrCrCdTdT / antisense rGrGrArUrGrGrUrCrUrCrCrArArGrCrArCrCrUdTdT” belongs 65.6%; to “sense rArArGrGrArUrUrUrGrUrCrUrGrGrArUrGrUrUdTdT / antisense rArArCrArUrCrCrArGrArCrArArArUrCrCrUrUdCdC”, 79.9%; to “sense rCrCrCrUrGrArUrGrArCrCrCrGrCrUrCrArUrGdTdT / antisense rCrArUrGrArGrCrGrGrGrUrCrArUrCrArGrGrGdTdT”, 91.2%. Turning to “sense rCrUrUrArUrGrArGrArArArGrGrUrGrUrUrUrUdTdT / antisense rArArArArCrArCrCrUrUrUrCrUrCrArUrArArGdGdT”, the normalised inhibition (eCFP-eYFP dual reporter) stood at 92.5%.

In the case of “sense rUrArUrCrArUrCrCrArArArCrArUrUrGrArUrUdTdT / antisense rArArUrCrArArUrGrUrUrUrGrGrArUrGrArUrAdAdA”, the normalised inhibition (eCFP-eYFP dual reporter) turned out to be 67.4%. Take “sense rCrGrArGrCrUrCrArArArUrArUrUrArGrGrUrGdTdT / antisense rCrArCrCrUrArArUrArUrUrUrGrArGrCrUrCrGdCdA”: the normalised inhibition (eCFP-eYFP dual reporter) was 90%.

As to “sense rArCrCrUrCrCrUrCrArGrArUrCrCrGrArUrUrUdTdT / antisense rArArArUrCrGrGrArUrCrUrGrArGrGrArGrGrUdTdC”, the normalised inhibition (eCFP-eYFP dual reporter) is 100%. As for “sense rArArCrCrCrArArCrCrCrUrGrArUrGrArCrCrCdTdT / antisense rGrGrGrUrCrArUrCrArGrGrGrUrUrGrGrGrUrUdCdT”, the normalised inhibition (eCFP-eYFP dual reporter) was 52.7%. As to “sense rCrCrUrGrCrGrArGrCrUrCrArArArUrArUrUrAdTdT / antisense rUrArArUrArUrUrUrGrArGrCrUrCrGrCrArGrGdTdC”, the normalised inhibition (eCFP-eYFP dual reporter) came to 102%.

For the substance “sense rUrGrGrArUrGrUrUrCrUrCrArArArUrUrGrCrCdTdT / antisense rGrGrCrArArUrUrUrGrArGrArArCrArUrCrCrAdGdA”, the normalised inhibition (eCFP-eYFP dual reporter) came out at 71.9%. Same read-out and setting: to “sense rCrUrCrArGrArArUrUrUrArArArUrArUrArArUdTdT / antisense rArUrUrArUrArUrUrUrArArArUrUrCrUrGrArGdGdA” belongs 85.9%; to “sense rGrGrUrGrCrUrUrGrGrArGrArCrCrArUrCrCrCdTdT / antisense rGrGrGrArUrGrGrUrCrUrCrCrArArGrCrArCrCdTdT”, 80.4%.

Turning to “sense rGrGrCrArUrCrArCrArUrGrUrUrGrGrCrArArGdTdT / antisense rCrUrUrGrCrCrArArCrArUrGrUrGrArUrGrCrCdTdG”, the normalised inhibition (eCFP-eYFP dual reporter) came out at 87.3%.

In the case of “sense rGrArArGrArGrArUrGrCrUrUrGrArUrArArUrCdTdT / antisense rGrArUrUrArUrCrArArGrCrArUrCrUrCrUrUrCdCdT”, the normalised inhibition (eCFP-eYFP dual reporter) was found to be 85.9%. On to “sense rUrCrUrArCrCrArGrArGrGrCrUrGrGrUrGrArCdTdT / antisense rGrUrCrArCrCrArGrCrCrUrCrUrGrGrUrArGrAdTdT”, for which the normalised inhibition (eCFP-eYFP dual reporter) was found to be 63.5%. Still for that read-out and setting: with “sense rCrArUrCrGrCrArArCrUrGrUrGrUrUrGrArCrCdTdT / antisense rGrGrUrCrArArCrArCrArGrUrUrGrCrGrArUrGdTdT” the figure was 84.8%.

Consider “sense rGrArUrGrArGrGrArArGrArGrArUrGrCrUrUrGdTdT / antisense rCrArArGrCrArUrCrUrCrUrUrCrCrUrCrArUrCdAdG”, for which the normalised inhibition (eCFP-eYFP dual reporter) is 95.1%.

In the case of “sense rUrGrGrUrGrArCrUrCrCrArGrArGrUrArCrArCdTdT / antisense rGrUrGrUrArCrUrCrUrGrGrArGrUrCrArCrCrAdGdC”, the normalised inhibition (eCFP-eYFP dual reporter) came out at 80.3%. For the substance “sense rCrUrCrCrArArUrUrUrArUrCrArUrCrCrArArAdTdT / antisense rUrUrUrGrGrArUrGrArUrArArArUrUrGrGrArGdTdG”, the normalised inhibition (eCFP-eYFP dual reporter) was found to be 107%. Regarding “sense rGrCrUrArGrUrArGrGrCrArUrArGrArArArArGdTdT / antisense rCrUrUrUrUrCrUrArUrGrCrCrUrArCrUrArGrCdTdG”, the normalised inhibition (eCFP-eYFP dual reporter) was found to be 106%.

Consider “sense rArUrUrCrCrUrGrArGrArGrGrUrArCrCrCrArUdTdT / antisense rArUrGrGrGrUrArCrCrUrCrUrCrArGrGrArArUdGdA”, for which the normalised inhibition (eCFP-eYFP dual reporter) came out at 114%. Same read-out and setting: to “sense rUrCrArCrUrCrCrArArUrUrUrArUrCrArUrCrCdTdT / antisense rGrGrArUrGrArUrArArArUrUrGrGrArGrUrGrAdGdA” belongs 56.8%; to “sense rUrUrGrArArCrCrUrCrCrUrCrArGrArUrCrCrGdTdT / antisense rCrGrGrArUrCrUrGrArGrGrArGrGrUrUrCrArAdAdT”, 56.5%; to “sense rCrCrUrGrArGrArGrGrUrArCrCrCrArUrUrUrGdTdT / antisense rCrArArArUrGrGrGrUrArCrCrUrCrUrCrArGrGdAdA”, 78.5%. Same read-out and setting: to “sense rGrArCrCrUrGrCrGrArGrCrUrCrArArArUrArUdTdT / antisense rArUrArUrUrUrGrArGrCrUrCrGrCrArGrGrUrCdAdT” belongs 101%.

Another data set has as its target UBE2D3. The data set can be described thus: reporter assay of Huesken 2005. The following applies: siRNA.
Regarding “RNA1{r(U)p.r(U)p.r(U)p.r(A)p.r(C)p.r(A)p.r(A)p.r(C)p.r(A)p.r(A)p.r(G)p.r(A)p.r(A)p.r(U)p.r(U)p.r(U)p.r(A)p.r(U)p.r(C)p.d(T)p.d(T)}|RNA2{r(G)p.r(A)p.r(U)p.r(A)p.r(A)p.r(A)p.r(U)p.r(U)p.r(C)p.r(U)p.r(U)p.r(G)p.r(U)p.r(U)p.r(G)p.r(U)p.r(A)p.r(A)p.r(A)p.d(T)p.d(G)}$$$RNA1{StrandType:ss}|RNA2{StrandType:as}$”, the normalised inhibition (eCFP-eYFP dual reporter) worked out at 48.8%. On to “RNA1{r(C)p.r(C)p.r(A)p.r(G)p.r(A)p.r(G)p.r(A)p.r(U)p.r(U)p.r(G)p.r(C)p.r(A)p.r(C)p.r(G)p.r(G)p.r(A)p.r(U)p.r(C)p.r(U)p.d(T)p.d(T)}|RNA2{r(A)p.r(G)p.r(A)p.r(U)p.r(C)p.r(C)p.r(G)p.r(U)p.r(G)p.r(C)p.r(A)p.r(A)p.r(U)p.r(C)p.r(U)p.r(C)p.r(U)p.r(G)p.r(G)p.d(C)p.d(A)}$$$RNA1{StrandType:ss}|RNA2{StrandType:as}$”, for which the normalised inhibition (eCFP-eYFP dual reporter) amounted to 82%.
